Measured values reported in patent US20230295215A1, “NOVEL MRNA 5'-END CAP ANALOGS MODIFIED WITHIN PHOSPHATE RESIDUES, RNA MOLECULE INCORPORATING THE SAME, USES THEREOF AND METHOD OF SYNTHESIZING RNA MOLECULE OR PEPTIDE” (Uniwersytet Warszawski, priority 2020, published 2023).

How the values were obtained:
[1] = cited from earlier work; for translation efficiency: relative to the compound without modification
3T3-L1 and JAWS II cells = test: Gaussia luciferase protein expression from capped mRNA transfected into mammalian cells; format: cell-based, murine; details: mRNAs modified with the two trinucleotide cap analogs compared with each other
Experimental: Transcripts incorporating at the 5′ end compounds according to the invention or benchmark (reference) compounds were obtained using in vitro transcription method in the presence of RNA polymerase T7 and DNA template containing the […] promoter sequence for this polymerase. In order to analyze the capping efficiency, short RNA transcripts were obtained as described in Example 9. The transcription yielding RNAs of 35 nt in length was carried out in the presence of selected compounds according to the invention or reference compounds representing state of the art and containing the same modifications of phosphate groups as the analyzed compounds according to the invention. The resulting RNAs were treated with DNAzyme 10-23 in order to shorten them and reduce 3′ end heterogeneity and analyzed in 15% polyacrylamide gel, which enabled separation of capped and uncapped RNAs. In order to analyze protein expression yield in mammalian cells, mRNAs carrying compounds according to the invention or reference compounds and encoding Gaussia luciferase as a reporter gene were obtained. […] The obtained mRNAs were introduced into mammalian cell lines (fibroblasts—3T3-L1 and dendritic cells—JAWS II) using transfection with lipofectamine, followed by measuring Gaussia luciferase expression in the extracellular medium at appropriate time intervals by the luminescence method as described in Example 13. […]

In the case of `COC1C(O)C(COP(=O)(O)OP(=O)(S)OP(=O)(O)OCC2OC(n3cnc4c(=O)[nH]c(N)nc43)C(O)C2O)OC1n1c[n+](C)c2c(=O)[nH]c(N)nc21` (centres unmarked) [m2^7,2′-OGppspG D2], the translation efficiency [1] is given as “increases”.

For `CO[C@@H]1[C@H](O)[C@@H](COP(=O)(O)OP(=O)([S-])OP(=O)(O)OC[C@H]2O[C@@H](n3cnc4c(=O)[nH]c(N)nc43)[C@H](O)[C@@H]2O)O[C@H]1n1c[n+](C)c2c(O)nc(N)nc21` (stereo partly drawn) [β-S-ARCA], the “translation efficiency of mRNA” value ([1]; in vitro and in vivo) is listed as “significant increase in translation efficiency”.

In the case of m2^7,3′-OGppCH2pG, the protein expression ([1]; compared to mRNA obtained with m2^7,3′-OGpppG (no O by CH2 substitution)) is listed as “significant reduction in protein expression” and the translation efficiency [1] is listed as “decreases”.

In the case of m^7GppCH2pAmpG, the translational properties (3T3-L1 and JAWS II cells) is reported as “very similar translational properties”.
